Laboratory results as given in ChEMBL document CHEMBL1255230, “Chemical inhibitor of nonapoptotic cell death with therapeutic potential for ischemic brain injury” (Nat Chem Biol, 2005).
The source made the active and inactive calls. The calls are words filed in the database; no cut-off is given here. Residues, ends and D or L forms follow the SMILES beside them. *: point of attachment. Cbz = O=C(OCc1ccccc1)*; CH2F = FC*

Key:
[1] = Inhibition of death receptor signaling mediated necroptotic cell death in human Jurkat cell deficient in FADD assessed as cell viability after 30 hrs by ATP based viability assay in presence of TNFalpha
[2] = system: Mus musculus; experiment: Inhibition of necroptosis in icv dosed mouse middle cerebral artery occlusion induced ischemic injury model assessed as reduction of infarct volume drug administered 4 hrs postocclusion; type: functional, organism-based
[3] = system: Mus musculus; experiment: Inhibition of necroptosis in icv dosed mouse middle cerebral artery occlusion induced ischemic injury model assessed as reduction of infarct volume drug administered 6 hrs postocclusion; type: functional, organism-based
[4] = system: Mus musculus; experiment: Inhibition of necroptosis in icv dosed mouse middle cerebral artery occlusion induced ischemic injury model assessed as improvement in neurological score drug administration before occlusion; type: functional, organism-based
[5] = system: Mus musculus; experiment: Inhibition of caspase3 in icv dosed mouse middle cerebral artery occlusion induced ischemic injury model after 3 hrs by Western blot method drug administered before occlusion; type: functional, organism-based
[6] = system: Mus musculus; experiment: Inhibition of necroptosis in mouse middle cerebral artery occlusion induced ischemic injury model assessed as reduction of infarct volume at 2-4 mM, icv before occlusion; type: functional, organism-based
[7] = system: Mus musculus; experiment: Inhibition of necroptosis in icv dosed mouse middle cerebral artery occlusion induced ischemic injury model assessed as improvement in neurological score drug administration after occlusion; type: functional, organism-based
[8] = system: Jurkat; experiment: Ratio of compound IC50 to Nec-1 IC50 for human jurkat cells; type: functional
[9] = system: Mus musculus; experiment: Inhibition of necroptosis in icv dosed mouse middle cerebral artery occlusion induced ischemic injury model assessed as induction of LC3-II by Western blot method drug administered 6hrs postocclusion; type: functional, organism-based
[10] = system: Mus musculus; experiment: Inhibition of necroptosis in icv dosed mouse middle cerebral artery occlusion induced ischemic injury model assessed as reduction of infarct volume drug administered 5 mins preocclusion; type: functional, organism-based
[11] = system: Mus musculus; experiment: Inhibition of necroptosis in icv dosed mouse middle cerebral artery occlusion induced ischemic injury model assessed as induction of LC3-II by Western blot method drug administered 4 hrs postocclusion; type: functional, organism-based
[12] = system: Mus musculus; experiment: Inhibition of necroptosis in mouse middle cerebral artery occlusion induced ischemic injury model assessed as reduction of infarct volume at 2-4 mM, icv after occlusion; type: functional, organism-based
[13] = system: Mus musculus; experiment: Inhibition of necroptosis in icv dosed mouse middle cerebral artery occlusion induced ischemic injury model assessed as induction of LC3-II by Western blot method drug administered 8 hrs postocclusion; type: functional, organism-based
[14] = system: Mus musculus; experiment: Inhibition of necroptosis in icv dosed mouse middle cerebral artery occlusion induced ischemic injury model assessed as induction of LC3-II after 5 hrs by Western blot method; type: functional, organism-based
[15] = system: Mus musculus; experiment: Inhibition of necroptosis in icv dosed mouse middle cerebral artery occlusion induced ischemic injury model assessed as induction of LC3-II after 8 hrs by Western blot method; type: functional, organism-based
[16] = system: Mus musculus; experiment: Inhibition of necroptosis in icv dosed mouse middle cerebral artery occlusion induced ischemic injury model assessed as induction of LC3-II after 26 hrs by Western blot method; type: functional, organism-based
[17] = system: Mus musculus; experiment: Inhibition of necroptosis in icv dosed mouse middle cerebral artery occlusion induced ischemic injury model assessed as reduction of infarct volume drug administered 2 hrs postocclusion; type: functional, organism-based
[18] = system: Mus musculus; experiment: Inhibition of necroptosis in icv dosed mouse middle cerebral artery occlusion induced ischemic injury model assessed as reduction of infarct volume; type: functional, organism-based

In the case of `CN1C(=O)NC(Cc2c[nH]c3c(Cl)cccc23)C1=O` (configuration not stated), the IC50 [1] is reported as 206 nM, the inhibition [2] is reported as “Active” and the inhibition [3] is reported as “Active”.
With `CN1C(=O)C(Cc2c[nH]c3c(Cl)cccc23)NC1=S` (configuration not stated) the inhibition [4] was “Dose-dependent effect”, the inhibition [5] was “inactive” and the inhibition [6] was “Dose-dependent effect”. For the same compound, the inhibition [7] was “Dose-dependent effect”, the “fold change (FC)” value [8] was 2.7 and the IC50 [1] was 182 nM. The Activity [9] was “Active”, the inhibition [10] was “Active” and the Activity [11] was “Active”. The inhibition [12] was “Dose-dependent effect”, the Activity [13] was “Active” and the Activity [14] was “Active”. The inhibition [3] was “Active”, the Activity [15] was “Active” and the Activity [16] was “Active”. The inhibition [17] was “Active”.
For `O=C1NC(=S)NC1Cc1c[nH]c2ccccc12` (configuration not stated), the inhibition [18] was “inactive”.
With `CC(C)[C@H](NC(=O)OCc1ccccc1)C(=O)N[C@@H](C)C(=O)N[C@@H](CC(=O)O)C(=O)CF` (Cbz-Val-Ala-Asp-CH2F) the inhibition [5] was “Active” and the inhibition [3] was “inactive”.
